Columns and labels:
[1] = tested on: Adult patients with R/R AML (CRS); conditions: human, in vivo
TNF = TNF levels in patients after blinatumomab in cycle 1; assay type: in vivo, human
[2] = tested on: VCAM-1 on endothelial cells (HUVEC); assay: Blinatumumab VCAM assay: VCAM-1 on CD31+ HUVEC in co-culture with T cells and NALM-6 cells (flow cytometry); assay type: cell-based, human; conditions: co-culture of HUVEC, isolated T cells and NALM-6 target cells
Protocol: FIG. 7. VCAM-1 Expression on HUVEC in AMG 103 Co-culture Assays: VCAM-1 expression by flow cytometry. […] expression levels are expressed as Median Fluorescence Intensity (MFI). VCAM-1 expressing HUVEC are expressed as percentage of CD31+ HUVEC. Error bars indicate the standard error of the mean of duplicate measurements. Two PBMC donors were used in this experiment.
The effect of blinatumumab (AMG 103) on T cell activation and the induction of VCAM-1 on endothelial cells was analyzed in co-cultures of HUVEC, isolated T cells and CD19-expressing NALM-6 target cells. VCAM-1 expression on CD31+ HUVEC was analyzed by flow cytometry.

| CRS events per patient [1] [per patient] | average duration of CRS events [1] | Compound | time to maximum TNF levels (TNF) [h] | VCAM-1 expression on CD31+ HUVEC [2] |
| --- | --- | --- | --- | --- |
| 2.3 | (b) average duration: 58 hrs | C[C@@H]1C[C@H]2[C@@H]3CCC4=CC(=O)C=C[C@]4(C)[C@@]3(F)[C@@H](O)C[C@]2(C)[C@@]1(O)C(=O)CO [dexamethasone] |  |  |
|  |  | blinatumomab | ≤ 2 | up-regulated |

Source: patent publication US20230146593A1, “METHOD FOR TREATMENT AND PROPHYLAXIS OF CRS IN PATIENTS COMPRISING A COMBINATION OF BISPECIFIC ANTIBODIES BINDING TO CDS X CANCER CELL AND TNF ALPHA OR IL-6 INHIBITOR” (AMGEN INC., priority 2020, published 2023)
